Results: patent publication US10934255B2, “Nrf and HIF activators/HDAC inhibitors and therapeutic methods using the same” (THE BOARD OF TRUSTEES OF THE UNIVERSITY OF ILLINOIS, priority 2017, dated 2021)
Like-named read-outs stand apart in the source and are kept apart here.

Experiments:
Human HDAC1 = molecular target: T1, Human HDAC1 (Homo sapiens, UniProt Q13547); assay: HDAC1 inhibition assay (fluorogenic p53 peptide substrate); assay type: biochemical
T1 construct: Full length with C-terminal GST tag, MW=79.9 kDa; GST (C); host or cells: Sf9 insect cells (baculovirus)
T1 sequence (Q13547 whole entry): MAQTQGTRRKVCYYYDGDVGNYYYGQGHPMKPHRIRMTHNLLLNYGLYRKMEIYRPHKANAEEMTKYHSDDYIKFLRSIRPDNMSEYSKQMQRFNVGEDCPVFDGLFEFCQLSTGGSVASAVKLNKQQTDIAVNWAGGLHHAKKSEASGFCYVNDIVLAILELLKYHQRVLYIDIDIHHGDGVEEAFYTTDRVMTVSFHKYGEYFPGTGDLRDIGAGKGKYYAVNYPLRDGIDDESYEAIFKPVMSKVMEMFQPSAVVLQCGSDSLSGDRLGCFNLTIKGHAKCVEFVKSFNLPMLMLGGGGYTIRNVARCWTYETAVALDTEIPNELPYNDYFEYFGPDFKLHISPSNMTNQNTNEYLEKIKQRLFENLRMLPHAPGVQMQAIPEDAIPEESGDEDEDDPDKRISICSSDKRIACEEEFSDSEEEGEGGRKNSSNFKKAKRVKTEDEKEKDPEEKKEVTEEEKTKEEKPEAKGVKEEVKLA
Experimental: The HDAC1, 2, 4, 5, 6, 7, 8, 9, 10, and 11 assays used isolated recombinant human protein; HDAC3/NcoR2 complex was used for the HDAC3 assay. Substrate for HDAC1, 2, 3, 6, 10, and 11 assays is a fluorogenic peptide from p53 residues 379-382 (RHKKAc); substrate for HDAC8 is fluorogenic diacyl peptide based on residues 379-382 of p53 (RHKAcKAc). Acetyl-Lys(trifluoroacetyl)-AMC substrate was used for HDAC4, 5, 7, and 9 assays. Compounds were dissolved in DMSO and tested in 10-dose IC50 mode with 3-fold serial dilution starting at 30 μM. Control Compound Trichostatin A (TSA) was tested in a 10-dose IC50 with 3-fold serial dilution starting at 5 μM. IC50 values were extracted by curve-fitting the dose/response slopes. Assays were performed in duplicate and IC50 values are an average of data from both experiments.
Human HDAC1 (GenBank Accession No. NM_004964): Full length with C-terminal GST tag, MW=79.9 kDa, expressed by baculovirus expression system in Sf9 cells. Enzyme is in 50 mM Tris-HCl, pH 8.0, 138 mM NaCl, 20 mM glutathione, and 10% glycerol, and stable for >6 months at −80° C. Purity is >10% by SDS-PAGE. Specific Activity is 20 U/μg, where one U=1 pmol/min under assay condition of 25 mM Tris/Cl, pH8.0, 137 mM NaCl, 2.7 mM KCl, 1 mM MgCl2, 0.1 mg/ml BSA, 100 μM HDAC substrate, and 13.2 ng/μl HDAC1, incubation for 30 min at 30° C.
Substrate for HDAC1 and HDAC6: Acetylated peptide substrate for HDAC, based on residues 379-382 of p53 (Arg-His-Lys-Lys(Ac)), a site of regulatory acetylation by the p300 and CBP acetyltransferases (lysines 381, 382)1-6, is the best for HDAC from among a panel of substrates patterned on p53, histone H3 and histone H4 acetylation sites7.
Reaction Buffer: 50 mM Tris-HCl, pH 8.0, 137 mM NaCl, 2.7 mM KCl, 1 mM MgCl2, 1 mg/ml BSA.
HDAC1: 75 nM HDAC1 and 50 μM HDAC substrate are in the reaction buffer and 1% DMSO final. Incubate for 2 hours at 30° C.
All IC50 values are automatically calculated using the GraphPad Prism version 5 and Equation of Sigmoidal dose-response (variable slope): Y=Bottom+(Top−Bottom)/(1+10^((Log EC50−X)*HillSlope)), where X is the logarithm of concentration, Y is the response, Y starts at Bottom and goes to Top with a sigmoid shape. In most cases, “Bottom” is set 0, and “Top” is set “less than 120%”. This is identical to the “four parameter logistic equation”. IC50 curves also are drawn using the GraphPad Prism, and IC50 values and Hill slopes are provided.
HDAC Activity Assays: HDAC assay is performed using fluorescently-labeled acetylated substrate, which comprises an acetylated lysine side chain. After incubation with HDAC, deacetylation of the substrate sensitizes the substrate such that, in a second step, treatment with the detection enzyme produces a fluorophore. HDACs 1 and 6 were expressed as full length fusion proteins. Purified proteins were incubated with 50 μM fluorescently-labeled acetylated peptide substrate and test compound for 2 hours at RT in HDAC assay buffer containing 50 mM Tris-HCl (pH 8.0), 137 mM NaCl, 2.7 mM KCl, 1 mM MgCl2, 1% DMSO, and 1% BSA.
Reactions were terminated by the addition of the Developer after 2 hours, and the development of fluorescence signal, which was relative to the amount of deacetylated peptide, was monitored by time-course measurement of EnVision (PerkinElmer). The HDAC activity was estimated from the slope of time-course measurement of the fluorescence intensity. The slope of no-enzyme control (substrate alone) was served as background, and % Enzyme activity was calculated using background-subtracted slope of no inhibitor control (DMSO) as 100% activity.

acetylated α-tubulin = assay: Tubulin acetylation in N2a cells (western blot); assay type: cell-based, mouse; details: normalized to the values of DMSO
Experimental: Cells were collected using RIPA buffer. WB was analyzed using Image QuantTL and the ratio between the intensity of the acetylated tubulin and the tubulin bands was calculated. These ratios were subsequently normalized to the values of DMSO (fold increase). For each sample 50 μg protein was loaded on a 12% SDS-PAGE gel and blotted on a PVDF membrane. The integrated density of acetylated α-tubulin and α-tubulin was measured on WB using Image J software. Furthermore the ratio between the integrated density of acetylated α-tubulin and α-tubulin was calculated.

Nrf2 = Nrf2 activation, Neh2-luc reporter assay; assay type: cell-based; details: measured at 10 μM
Experimental: (§1) The present compounds were evaluated for an ability to activate Nrf2 and HIF-1α. Table 1 summarizes Nrf2 activation data obtained in Neh2-luc reporter assay; and HIF1 activation measured in ODD reporter assay.

HIF-1α = assay: HIF1 activation, ODD reporter assay; assay type: cell-based; details: measured at 10 μM
Experimental: as §1

[1] = Table 1, performed by Reaction Biology Corporation, read-out: HDAC isoform IC50 (nM) 1
[2] = Table 2 isoform selectivity, read-out: HDAC Inhibition (IC50 uM) isoform 1

In the case of `O=C(NO)c1ccc(CN2CCc3ccc(Cl)cc32)cc1` [II-ING-6, 4-((6-Chloroindolin-1-yl)methyl)-N-hydroxybenzamide], the IC50 (Human HDAC1; [1]) is reported as 5580 nM, the IC50 (Human HDAC1; [2]) is reported as 3770 nM and the “Ratio acetyl tub/tub fold increase” value (acetylated α-tubulin; 1.0 uM) is reported as 15.5 1.0 uM fold. For the same compound, the fold induction at 10 µM (Nrf2) was 5.6 and the fold induction at 10 µM (HIF-1α) was 7.5.
For `Cn1c(NCc2ccc(C(=O)NO)cc2)nc2ccccc21` [II-ING-13, N-Hydroxy-4-(((1-methyl-1H-benzo[d]imidazol-2-yl)amino)methyl)benzamide], the IC50 (Human HDAC1; [1]) was 2630 nM, the IC50 (Human HDAC1; [2]) was 2550 nM and the “Ratio acetyl tub/tub fold increase” value (acetylated α-tubulin; 0.01 uM) was 2.0 (0.01 uM) fold. It also gave a fold induction at 10 µM (Nrf2) of 1.8 and a fold induction at 10 µM (HIF-1α) of 2.6.
`O=C(NO)c1ccc(CN2CCc3cc(Cl)ccc32)cc1` [II-ING-39, 4-((5-Chloroindolin-1-yl)methyl)-N-hydroxybenzamide] was tested, and the IC50 (Human HDAC1; [1]) was 12700 nM, the “Ratio acetyl tub/tub fold increase” value (acetylated α-tubulin; 0.1 uM) was 1.69 (0.1 uM) fold and the fold induction at 10 µM (Nrf2) was 6.5. For the same compound, the fold induction at 10 µM (HIF-1α) was 7.
With `O=C(NO)c1ccc(CN2CCc3ccc(F)cc32)cc1` [II-ING-41, 4-((6-Fluoroindolin-1-yl)methyl)-N-hydroxybenzamide] the IC50 (Human HDAC1; [1]) was 11800 nM, the IC50 (Human HDAC1; [2]) was 3670 nM and the “Ratio acetyl tub/tub fold increase” value (acetylated α-tubulin; 0.1 uM) was 3.47 (0.1 uM) fold. The fold induction at 10 µM (Nrf2) was 7.8 and the fold induction at 10 µM (HIF-1α) was 3.6.
With `O=C(NO)c1ccc(CN2CCc3cc(F)ccc32)cc1` [II-ING-42, 4-((5-Fluoroindolin-1-yl)methyl)-N-hydroxybenzamide] the IC50 (Human HDAC1; [1]) was 20000 nM, the “Ratio acetyl tub/tub fold increase” value (acetylated α-tubulin; 0.1 uM) was 2.46 (0.1 uM) fold and the fold induction at 10 µM (Nrf2) was 7.7. It also gave a fold induction at 10 µM (HIF-1α) of 1.4.
`O=C(NO)c1ccc(CN2CCc3ccccc32)cc1` [II-ING-44, N-Hydroxy-4-(indolin-1-ylmethyl)benzamide] was tested, and the IC50 (Human HDAC1; [1]) was 17600 nM, the “Ratio acetyl tub/tub fold increase” value (acetylated α-tubulin; 0.1 uM) was 2.68 (0.1 uM) fold and the fold induction at 10 µM (Nrf2) was 2.3. It also gave a fold induction at 10 µM (HIF-1α) of 1.4.
In the case of `COc1ccc2c(c1)CCN2Cc1ccc(C(=O)NO)cc1` [II-ING-49, N-Hydroxy-4-((5-methoxyindolin-1-yl)methyl)benzamide], the IC50 (Human HDAC1; [1]) is reported as 4950 nM, the “Ratio acetyl tub/tub fold increase” value (acetylated α-tubulin; 0.1 uM) is reported as 2.61 (0.1 uM) fold and the fold induction at 10 µM (Nrf2) is reported as 2.4. The fold induction at 10 µM (HIF-1α) was 1.
Compound `O=C(NO)c1ccc(CN2C(=O)C(F)(F)c3ccccc32)cc1` [II-ING-66, 4-((3,3-Difluoro-2-oxoindolin-1-yl)methyl)-N-hydroxybenzamide] has an IC50 (Human HDAC1; [1]) of 3550 nM, a fold induction at 10 µM (Nrf2) of 9.9 and a fold induction at 10 µM (HIF-1α) of 5.6.
